We go through 104 molecules from PubChem BioAssay AID1996.

≈ marks a conversion by molar mass, not a printed value.

The conditions of this series: buffer; pH 7.4; 200.0 µM.
As to `O=C(c1cc(S(=O)(=O)N2CCOCC2)c(Cl)cc1Cl)N1CCN(S(=O)(=O)c2cccc(F)c2)CC1`, the solubility (kinetic) was 20.8 µg/mL (≈ 36.7 µM).
To `O=C(NCc1ccco1)/C(=C\c1ccco1)NC(=O)c1ccco1` belongs 47.3 µg/mL (≈ 145 µM); to `CCNC(=S)Nc1ccc(Cc2nc3ccccc3[nH]2)cc1`, 36 µg/mL (≈ 116 µM).
As for `O=C(O)/C=C/C(=O)Nc1ccc(Cc2ccc(NC(=O)/C=C/C(=O)O)cc2)cc1`, the kinetic solubility worked out at 58 µg/mL (≈ 147 µM).
To `CCOc1ccc(CCNC(=O)C2(c3ccccc3)CC2)cc1OCC` belongs more than 53 µg/mL.
For the molecule `Cc1ccccc1CC(=O)N1CCCc2ccccc21`, the kinetic solubility stood at 36.5 µg/mL (≈ 138 µM).
Turning to `COc1ccccc1N1CCN(C(=O)c2cc3cc(F)ccc3[nH]2)CC1`, the kinetic solubility was 0.7 µg/mL (≈ 1.98 µM).
To `CCN1/C(=C\C(=S)Nc2ccccc2)Sc2ccccc21` belongs 20.7 µg/mL (≈ 66.2 µM); to `O=C(NCCc1ccc(Cl)cc1)c1ccc(Br)s1`, 1.2 µg/mL (≈ 3.48 µM).
The same measure for `COc1cccc(NC(=O)CN(C)C(=O)c2c(C)noc2C)c1`: more than 47.6 µg/mL; for `CCC(=O)Nc1ccc2c(c1)ncn2CCc1ccccc1`: more than 44 µg/mL.
In the case of `COc1cc(CCC(=O)N2CC(C)OC(C)C2)cc(OC)c1OC` (centres undefined), the solubility (kinetic) is more than 50.6 µg/mL.
To `CC(Sc1ccccn1)C(=O)NC1CCCC1` (centres undefined) belongs more than 37.6 µg/mL; to `CCCNC(=O)N1c2ccccc2Sc2ccccc21`, 33.6 µg/mL (≈ 118 µM); to `CC1=CCC2C(=O)N(c3ccc(OC(=O)c4ccco4)cc3)C(=O)C2C1` (centres undefined), 21.5 µg/mL (≈ 61.2 µM).
The same measure for `CC(=O)N1CCCSC1=Nc1ccccc1`: more than 35.1 µg/mL; for `O=S(=O)(c1ccc(F)cc1)n1cnc2ccccc21`: 28.4 µg/mL (≈ 103 µM).
To `O=C(O)COc1ccc(S(=O)(=O)N2CCCC2)cc1` belongs more than 42.8 µg/mL; to `O=C1CNC(=S)N1CCCn1ccnc1`, 31.5 µg/mL (≈ 140 µM).
Turning to `c1ccc(-c2noc(-c3ccno3)n2)nc1`, the solubility (kinetic) worked out at 25.4 µg/mL (≈ 119 µM).
The same measure for `C/C(=N\n1c(C)nc2ccccc2c1=O)c1ccc(N)cc1`: more than 43.9 µg/mL; for `Nc1ccc(C2(c3ccc(N)cc3)CCCCC2)cc1`: 36 µg/mL (≈ 135 µM); for `CCOC(=O)c1csc(NC(=O)c2cccs2)n1`: 28.9 µg/mL (≈ 102 µM).
`CC(C)c1cc(C(C)C)c(S(=O)(=O)N2CCNCC2)c(C(C)C)c1` displayed a kinetic solubility of 39.3 µg/mL (≈ 111 µM).
Consider `COC(=O)c1ccc(OC(=O)CN2C(=O)c3ccccc3C2=O)cc1`, for which the solubility (kinetic) was determined as 50.6 µg/mL (≈ 149 µM).
For `O=C(NC1CCCCC1)c1ccc(-c2cccc([N+](=O)[O-])c2)o1`, the kinetic solubility stood at 2.8 µg/mL (≈ 8.91 µM).
To `NC(=O)C1CCN(C(=O)c2ccc(Cl)c(S(=O)(=O)N3CCCCCC3)c2)CC1` belongs more than 64.2 µg/mL.
For the molecule `Cc1cc(Br)cc(Cl)c1OC(=O)c1cnccn1`, the kinetic solubility was found to be 47.4 µg/mL (≈ 145 µM).
Molecule `CC1CC(CCN)(c2ccccc2)C(C)CN1C.Cl` (centres undefined) showed a solubility (kinetic) of more than 47.9 µg/mL.
Regarding `O=C(O)C1C2CCC(O2)C1C(=O)Nc1ccc(Cl)cc1F` (centres undefined), the solubility (kinetic) was more than 47.1 µg/mL.
In turn, `Cc1ccccc1NS(=O)(=O)c1ccc(C(=O)N(C)CC(=O)Nc2ccccc2Br)cc1` yielded a solubility (kinetic) of 73 µg/mL (≈ 141 µM).
Molecule `O=Cc1ccc(-c2ccc([N+](=O)[O-])cc2Cl)o1` gave a solubility (kinetic) of 5.2 µg/mL (≈ 20.7 µM).
The same measure for `O=C(NC(=S)Nc1cccc([N+](=O)[O-])c1)C1CCCC1`: 2.6 µg/mL (≈ 8.86 µM).
The same measure for `COc1cccc(C=O)c1OC(=O)N1CCOCC1`: more than 39.8 µg/mL; for `Cc1noc(C)c1S(=O)(=O)Nc1cccc(CO)c1`: more than 42.3 µg/mL; for `COc1ccc(Sc2nc(-c3ccccc3)ncc2OC)cc1`: less than 0.3 µg/mL.
As to `COC(=O)c1c(NC(=O)c2ccc(C)cc2)csc1C`, the solubility (kinetic) is less than 0.6 µg/mL.
To `CSc1ncccc1C(=O)OCC(=O)NC(C)CCc1ccccc1` (centres undefined) belongs 29.1 µg/mL (≈ 81.2 µM); to `O=C(CN1CCc2ccccc21)NC(=O)NC1CCCCC1`, 34.8 µg/mL (≈ 115 µM).
The same measure for `O=C(O)c1ccccc1-c1ccccc1C(=O)Nc1ccccc1-c1ccccc1`: more than 59 µg/mL; for `Cc1cc(C)c2nc(SCC(=O)Nc3cc(C)on3)c(C#N)cc2c1`: less than 0.2 µg/mL; for `Cc1[nH]c2ccccc2c1C(c1ccccn1)N1CCCC1` (centres undefined): 39.9 µg/mL (≈ 137 µM).
`COc1cccc(NC(=O)CN(C)C(C)C(=O)N2CCCC2)c1` (centres undefined) gave a kinetic solubility of 44.4 µg/mL (≈ 139 µM).
`COc1ccc(-n2c(C)c(C)c3c(NCCCO)ncnc32)cc1`: the kinetic solubility was more than 49 µg/mL.
`O=C1C2C3C=CC(C4CC34)C2C(=O)N1c1cc(Cl)ccn1` (centres undefined) had a solubility (kinetic) of 42.6 µg/mL (≈ 142 µM).
The same measure for `CC(NC(=O)c1ccccc1)C(=O)NC1CCCc2ccccc21` (centres undefined): 14.7 µg/mL (≈ 45.6 µM); for `C/C(=N/O)c1no[n+]([O-])c1/C(C)=N\O`: more than 30 µg/mL.
Regarding `O=C(Nc1ccc(F)cc1)c1ccc2nsnc2c1`, the kinetic solubility came to 5.4 µg/mL (≈ 19.8 µM).
`COc1ccc(Cc2nc(C)cc(Cl)n2)cc1[N+](=O)[O-].Cl` displayed a solubility (kinetic) of more than 49.5 µg/mL.
The same measure for `C[N+](C)(C)CC#CCOC(=O)Nc1cccc(Cl)c1.[Cl-]`: more than 47.6 µg/mL; for `N#Cc1ccc(-c2ccc(OCC(O)CN3CCCCC3)cc2)cc1` (centres undefined): 42.4 µg/mL (≈ 126 µM).
`COc1ccc(N/N=C(\C#N)C(=N)N2CCOCC2)cc1` came in with a solubility (kinetic) of more than 43.1 µg/mL.
The same measure for `Cc1cc(C(=O)OCC(=O)Nc2nccs2)c2ccccc2n1`: 6.8 µg/mL (≈ 20.8 µM); for `COc1ccc(CCNC(=O)c2ccccc2SC)cc1`: 27.4 µg/mL (≈ 90.9 µM); for `CC1CCCN(C(=O)CCNC(=O)c2ccccc2Cl)C1` (centres undefined): more than 46.3 µg/mL.
To `COc1ccc(S(=O)(=O)c2c[nH]c(=S)[nH]c2=O)cc1Cl` belongs more than 49.9 µg/mL; to `CCOC(=O)c1c(C)oc2c1c(C=NC1CCS(=O)(=O)C1)c(O)c1ccccc12` (centres undefined), less than 0.9 µg/mL; to `CC(=O)Nc1ccc(/C=C/c2noc(-c3ccccc3O)n2)cc1`, less than 0.2 µg/mL.
To `CCN(C(=O)/C=C/c1ccc(OC)cc1)C1CCCCC1` belongs 38.3 µg/mL (≈ 133 µM); to `Cc1cc(C=O)c(C)n1-c1ccc(NC2CCCC2)c([N+](=O)[O-])c1`, 5.1 µg/mL (≈ 15.6 µM); to `COc1ccc(CNC(=O)c2csc3c2CCCC3)cc1`, 23.2 µg/mL (≈ 77 µM).
`CCCCn1c(N)c(N(CC(C)C)C(=O)c2cnccn2)c(=O)[nH]c1=O` had a solubility (kinetic) of 53.9 µg/mL (≈ 150 µM).
Molecule `Cc1ccc(NC(=S)Nc2ccccn2)cc1C` had a kinetic solubility of 0.4 µg/mL (≈ 1.55 µM).
The same measure for `Cc1cc(OCC(O)CN2CCCC2)cc(C)c1Cl.Cl` (centres undefined): 42.3 µg/mL.
Regarding `Cc1ccc(SCCNC(=O)c2ccccc2F)cc1`, the solubility (kinetic) came to 27.8 µg/mL (≈ 96.1 µM).
With `O=Cc1c(NCc2ccccc2Cl)c2ccccc2[nH]c1=O`, the kinetic solubility worked out at 17.7 µg/mL (≈ 56.6 µM).
The same measure for `COC(=O)c1sccc1NC(=O)c1ccc(C(C)C)cc1`: less than 0.6 µg/mL; for `CCCNc1nc(Cl)nc(Nc2ccc(Cl)cc2)n1`: 1.1 µg/mL (≈ 3.69 µM); for `Cn1c(SCC(=O)NC2CC2)nnc1-c1ccccc1`: more than 43.3 µg/mL.
Molecule `CC(C)C(=O)Nc1ccc(-c2nc3ncccc3o2)cc1` had a kinetic solubility of 22.2 µg/mL (≈ 78.9 µM).
`CC(C)c1ccc(CNc2ccc3c(c2)ncn3C)cc1` had a kinetic solubility of 22 µg/mL (≈ 78.7 µM).
The same measure for `c1ccc(-c2ccccc2OCCCCn2ccnc2)cc1`: 31.3 µg/mL (≈ 107 µM); for `O=[N+]([O-])c1ccc2nc(-c3ccccn3)[nH]c2c1`: 5 µg/mL (≈ 20.8 µM).
To `CC(=O)N/C(=N\c1nc(C)cc(C)n1)Nc1ccccc1Cl` belongs 0.5 µg/mL (≈ 1.57 µM); to `CC(=O)c1ccc(N2CCCCC2)c(F)c1`, 12.1 µg/mL (≈ 54.7 µM); to `O=C(NC(=O)N1CCSCC1)c1c(Cl)cccc1Cl`, more than 47.9 µg/mL.
On to `Cn1cccc1C(=O)NCCc1ccc(Cl)cc1`, for which the solubility (kinetic) stood at 36.1 µg/mL (≈ 137 µM).
`CNC(=O)c1cnc(-c2ccccc2)nc1-c1ccccc1` registered a solubility (kinetic) of 14.8 µg/mL (≈ 51.2 µM). This solubility kinetic is about 2.4-fold lower than that of the molecule before.
The same measure for `COc1cccc(Nc2ccc(C(=O)O)cc2N)c1`: more than 38.7 µg/mL; for `COc1ccc(S(=O)(=O)NC(C)C(=O)NCc2ccncc2)cc1C` (centres undefined): 51.9 µg/mL (≈ 143 µM); for `COc1ccccc1N1CN(S(=O)(=O)c2ccc(C)cc2)c2nc3ccccc3nc21`: 1 µg/mL (≈ 2.31 µM).
For the molecule `CCN(CC)C(=O)C(Oc1ccc(C)nc1[N+](=O)[O-])c1ccccc1` (centres undefined), the kinetic solubility stood at 48.6 µg/mL (≈ 142 µM).
Regarding `N#CCCN1C(=O)C2(OCCO2)c2ccccc21`, the solubility (kinetic) was more than 36.6 µg/mL.
To `CN/C(=C\[N+](=O)[O-])NCCSCc1csc(CN(C)C)n1` belongs more than 49.7 µg/mL; to `CC1CCN(CC(=O)N2CCc3ccccc32)CC1`, 36.9 µg/mL (≈ 143 µM); to `COc1ccccc1CNC1CCN(Cc2ccccc2)CC1`, more than 46.6 µg/mL.
As for `COc1ccccc1CNc1ccc(N2CCCCC2)cc1`, the kinetic solubility is 30 µg/mL (≈ 101 µM).
To `CNC(=S)N(Cc1ccccc1)Cc1cccnc1` belongs 39 µg/mL (≈ 144 µM).
To `O=C(CCCc1ccccc1)NCCCc1ccccc1` belongs 33 µg/mL (≈ 117 µM).
Turning to `O=C(COC(=O)c1ccccc1Br)Nc1ccc(F)cc1`, the kinetic solubility was determined as 28.7 µg/mL (≈ 81.5 µM). This solubility kinetic and that of the molecule before are within 1.5-fold of each other.
To `Cc1nn(CC(=O)NC2(C#N)CCCCC2)c(C)c1[N+](=O)[O-]` belongs more than 45.8 µg/mL; to `CC1CCCN(C(=O)COC(=O)Cc2c[nH]c3ccccc23)C1` (centres undefined), more than 47.2 µg/mL; to `O=[N+]([O-])c1ccc(Oc2ccc(Oc3ccc(C(F)(F)F)cn3)cc2)nc1`, 0.3 µg/mL (≈ 0.795 µM).
`Cc1cc(CSCc2ccc(Cl)cc2)no1` gave a solubility (kinetic) of 2.2 µg/mL (≈ 8.67 µM).
`O=C(CNC(=O)c1cccc(F)c1)N/N=C/c1cccs1` yielded a solubility (kinetic) of more than 45.8 µg/mL.
To `Cc1nn(C(=O)N(C)C)c(C)c1CN1C(=O)c2ccccc2C1=O` belongs more than 49 µg/mL; to `COCCCNC(=O)c1ccccc1-c1cc(C)no1`, 32.6 µg/mL (≈ 119 µM).
`Cc1ccc(C(=O)Nc2c(C)cc(-c3ccccc3)oc2=O)cc1` registered a solubility (kinetic) of less than 0.7 µg/mL.
To `Cc1cc(=O)oc2cc(OCC(=O)Nc3nccs3)ccc12` belongs 4.1 µg/mL (≈ 13 µM).
On to `COc1ccccc1-n1ccnc(SCC(=O)NC2CCCC2)c1=O`, for which the kinetic solubility is more than 53.9 µg/mL.
In turn, `COc1ccc(CC(=O)OCC(=O)Nc2cc(Cl)ccc2C)cc1` showed a kinetic solubility of 7 µg/mL (≈ 20.1 µM).
The molecule `COC(=O)c1ccc(C(=S)N2CCCCC2)cc1` showed a solubility (kinetic) of more than 39.5 µg/mL.
The same measure for `Cc1ccc(C(=O)NCCCNC(=O)c2ccc(Cl)cc2)cn1`: 36.6 µg/mL (≈ 110 µM); for `N#CCSc1nc2ccccc2c(=O)n1CCCC(=O)NCC1CCCO1` (centres undefined): 47.7 µg/mL (≈ 123 µM).
